Our source for the T/C values is PubChem BioAssay AID248 (DTP/NCI, 2004).

In this assay the test system is L1210 leukemia ip in BDF1 mice, survival T/C. Description: NCI In Vivo Anticancer Drug Screen. Data for tumor model L1210 Leukemia (intraperitoneal) in B6D2F1 (BDF1) mice. As to conditions: endpoint: mean survival time, higher = longer survival. The method, boiled down:
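Ratio derived from survival: compound-dosed mice over vehicle-dosed mice, all bearing a transplantable tumor.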

[1] abbreviates: dose: 100.0 mg/kg/injection, schedule: Q04DX003 (ip), vehicle: Klucel (hydroxypropylcellulose) (HPC).
The mark [2] stands for this setting: dose: 200.0 mg/kg/injection, schedule: Q04DX003 (ip), vehicle: Klucel (hydroxypropylcellulose) (HPC).
Setting [3] is: dose: 400.0 mg/kg/injection, schedule: Q04DX003 (ip), vehicle: Klucel (hydroxypropylcellulose) (HPC).
The mark [4] stands for this setting: dose: 100.0 mg/kg/injection, schedule: Q01DX001 (ip), vehicle: acetone.
[5] abbreviates: dose: 100.0 mg/kg/injection, schedule: Q04DX003 (ip), vehicle: saline.
The mark [6] stands for this setting: dose: 200.0 mg/kg/injection, schedule: Q04DX003 (ip), vehicle: saline.
Setting [7] is: dose: 400.0 mg/kg/injection, schedule: Q04DX003 (ip), vehicle: saline.
[8] abbreviates: dose: 100.0 mg/kg/injection, schedule: Q01DX009 (ip), vehicle: saline with Tween-80.
Where [9] appears, read: dose: 100.0 mg/kg/injection, schedule: Q04DX003 (ip), vehicle: saline with Tween-80.
The mark [10] stands for this setting: dose: 100.0 mg/kg/injection, schedule: Q01DX001 (ip), vehicle: Klucel (hydroxypropylcellulose) (HPC).
The mark [11] stands for this setting: dose: 200.0 mg/kg/injection, schedule: Q01DX001 (ip), vehicle: Klucel (hydroxypropylcellulose) (HPC).
The mark [12] stands for this setting: dose: 200.0 mg/kg/injection, schedule: Q01DX009 (ip), vehicle: saline with Tween-80.
Where [13] appears, read: dose: 400.0 mg/kg/injection, schedule: Q01DX009 (ip), vehicle: saline with Tween-80.
Where [14] appears, read: dose: 100.0 mg/kg/injection, schedule: Q01DX009 (ip), vehicle: saline.
[15] abbreviates: dose: 200.0 mg/kg/injection, schedule: Q01DX009 (ip), vehicle: saline.
The mark [16] stands for this setting: dose: 400.0 mg/kg/injection, schedule: Q01DX009 (ip), vehicle: saline.

“And” between values parts separate entries of the source, which are not always exact repeats. Identical values can stand only once. Inconclusive results and toxic doses are left out.

Consider `O=S(=O)(/N=C(Cl)/C(Cl)=N/S(=O)(=O)c1ccccc1)c1ccccc1`, for which the T/C under setting [1] is 95 % of control, the T/C under setting [2] was 100 % of control and the T/C under setting [3] was 95 % of control.

`CCC(C)C(NCc1ccccc1)C(=O)O` (stereo unspecified): the T/C was 108 % of control under setting [4]; 102 % of control under setting [5]; 97 % of control (dose: 200.0 mg/kg/injection, schedule: Q01DX001 (ip), vehicle: acetone); 93 % of control under setting [6]; 90 % of control (dose: 400.0 mg/kg/injection, schedule: Q01DX001 (ip), vehicle: acetone); 96 % of control under setting [7].

For `CCOc1ccnc(OCC)n1`, the T/C (dose: 25.0 mg/kg/injection, schedule: Q01DX009 (ip), vehicle: saline with Tween-80) was 86 % of control; the T/C (dose: 25.0 mg/kg/injection, schedule: Q04DX003 (ip), vehicle: saline with Tween-80) is 95 % of control; the T/C (dose: 50.0 mg/kg/injection, schedule: Q01DX009 (ip), vehicle: saline with Tween-80) is 100 % of control; the T/C (dose: 50.0 mg/kg/injection, schedule: Q04DX003 (ip), vehicle: saline with Tween-80) was 97 % of control; the T/C under setting [8] is 91 % of control; the T/C under setting [9] was 106 % of control.

`CC1(C)C/C(=N/O)C/C(=N\O)C1`: the T/C (dose: 25.0 mg/kg/injection, schedule: Q04DX003 (ip), vehicle: Klucel (hydroxypropylcellulose) (HPC)) is 95 % of control and the T/C (dose: 50.0 mg/kg/injection, schedule: Q04DX003 (ip), vehicle: Klucel (hydroxypropylcellulose) (HPC)) was 96 % of control.

For `COc1ccc(C(=O)CC2CCCC(CC(=O)c3ccc(OC)cc3)N2C)cc1` (stereo unspecified), the T/C runs as follows: (dose: 75.0 mg/kg/injection, schedule: Q01DX001 (ip), vehicle: other) 98 % of control; (dose: 150.0 mg/kg/injection, schedule: Q01DX001 (ip), vehicle: other) 90 % of control.

As to `NC(C(=O)O)c1ccco1` (stereo unspecified), the T/C is 103 % of control under setting [1], 105 % of control under setting [2] and 101 % of control under setting [3].

On to `Cc1nc[nH]c(=O)c1CCC1OCCO1`, for which the T/C runs as follows: under setting [5], 93 % of control; under setting [6], 98 % of control; under setting [7], 98 % of control.

With `CCN1CCC2CN(C(=S)Nc3ccccc3)CCN2C1=O` (stereo unspecified), the T/C under setting [9] was 97 % of control; the T/C (dose: 200.0 mg/kg/injection, schedule: Q04DX003 (ip), vehicle: saline with Tween-80) was 94 % of control; the T/C (dose: 400.0 mg/kg/injection, schedule: Q04DX003 (ip), vehicle: saline with Tween-80) was 91 % of control.

As for `CCCCSc1n[nH]c(=O)nc1SC`, under setting [4], the T/C is 104 % of control.

With `CC1(C)c2ccccc2C(O)(CCl)c2ccccc21`, the T/C reads like this: under setting [1], 104 % of control; under setting [2], 112 % of control; under setting [3], 94 % of control.

On to `c1ccc2snnc2c1`, for which the T/C reads like this: (dose: 20.0 mg/kg/injection, schedule: Q01DX001 (ip), vehicle: saline) 102 % of control; (dose: 40.0 mg/kg/injection, schedule: Q01DX001 (ip), vehicle: saline) 104 % of control; (dose: 80.0 mg/kg/injection, schedule: Q01DX001 (ip), vehicle: saline) 98 % of control.

As for `CCCCCCCN(CCCCCCC)CC(O)c1cc(-c2ccc(Cl)cc2)nc2c(C(F)(F)F)cccc12` (stereo unspecified), the T/C by setting is: under setting [10], 104 % of control; under setting [8], 102 % of control; under setting [11], 96 % of control; under setting [12], 100 % of control; (dose: 400.0 mg/kg/injection, schedule: Q01DX001 (ip), vehicle: Klucel (hydroxypropylcellulose) (HPC)) 100 % of control; under setting [13], 100 % of control.

Turning to `CC(=O)OCC(CO)(CO)CO`, the T/C by setting is: under setting [14], 98 % of control; under setting [5], 97 % of control; under setting [15], 106 % of control; under setting [6], 105 % of control; under setting [16], 101 % of control; under setting [7], 92 % of control.

For the molecule `CCCCCCCCC(O)CCC` (stereo unspecified), the T/C is, setting by setting: under setting [14], 102 % of control; under setting [15], 105 % of control; under setting [16], 102 % of control.

On to `O=C1NC(c2ccc(F)cc2)OC1C(=O)c1ccccc1` (stereo unspecified), for which the T/C is 104 % of control (dose: 100.0 mg/kg/injection, schedule: Q01DX001 (ip), vehicle: saline); 110 % of control (dose: 200.0 mg/kg/injection, schedule: Q01DX001 (ip), vehicle: saline); 104 % of control (dose: 400.0 mg/kg/injection, schedule: Q01DX001 (ip), vehicle: saline).

With `CC(=O)Oc1ccc2c(c1N=NN(C)C)CCC1C2CCC2(C)C(=O)CCC12` (stereo unspecified), the T/C under setting [10] is 98 % of control and the T/C under setting [11] is 104 % of control.

Regarding `O=S(=O)(O)CCN1CCN(CCO)CC1`, the T/C under setting [14] was 96 % of control; the T/C under setting [5] is 95 % of control; the T/C under setting [15] was 91 % of control; the T/C under setting [6] was 101 % of control; the T/C under setting [16] was 98 % of control; the T/C under setting [7] is 97 % of control.

Regarding `O=C(Nc1cccc(Cl)c1)Nc1ccccc1Cl`, the T/C under setting [8] is 100 % of control, the T/C under setting [12] is 97 % of control and the T/C under setting [13] is 96 % of control.

For `COc1cccc(C(=O)O)c1[N+](=O)[O-]`, the T/C reads like this: (dose: 50.0 mg/kg/injection, schedule: Q01DX001 (ip), vehicle: other) 103 % of control; (dose: 100.0 mg/kg/injection, schedule: Q01DX001 (ip), vehicle: other) 97 % of control; (dose: 100.0 mg/kg/injection, schedule: Q04DX002 (ip), vehicle: Klucel (hydroxypropylcellulose) (HPC)) 106 % of control; (dose: 200.0 mg/kg/injection, schedule: Q01DX001 (ip), vehicle: other) 115 % of control; (dose: 200.0 mg/kg/injection, schedule: Q04DX002 (ip), vehicle: Klucel (hydroxypropylcellulose) (HPC)) 95 % of control; (dose: 400.0 mg/kg/injection, schedule: Q01DX001 (ip), vehicle: other) 97 % of control. For the same molecule, the T/C (dose: 400.0 mg/kg/injection, schedule: Q04DX002 (ip), vehicle: Klucel (hydroxypropylcellulose) (HPC)) is 88 % of control.

As for `CCC[CH2][Sn]([CH2]CCC)([S]C#N)[S]C#N`, the T/C was 101 % of control (dose: 3.12 mg/kg/injection, schedule: Q04DX002 (ip), vehicle: gum acacia); 96 % of control (dose: 6.25 mg/kg/injection, schedule: Q04DX002 (ip), vehicle: gum acacia); 96 % of control (dose: 12.5 mg/kg/injection, schedule: Q04DX002 (ip), vehicle: gum acacia).

With `N#CC(CCO)(CCO)c1ccccc1`, the T/C (dose: 100.0 mg/kg/injection, schedule: Q01DX009 (ip), vehicle: Klucel (hydroxypropylcellulose) (HPC)) is 101 % of control; the T/C (dose: 200.0 mg/kg/injection, schedule: Q01DX009 (ip), vehicle: Klucel (hydroxypropylcellulose) (HPC)) was 97 % of control; the T/C (dose: 400.0 mg/kg/injection, schedule: Q01DX009 (ip), vehicle: Klucel (hydroxypropylcellulose) (HPC)) was 105 % of control.

On to `CC(=O)OC1CC(OC2C(O)CC(OC3C(O)CC(OC4CCC5(C)C(CCC6C5CC(O)C5(C)C(C7=CC(=O)OC7)CCC65O)C4)OC3C)OC2C)OC(C)C1O` (stereo unspecified) (tested in a mixture with another compound), for which the T/C is 97 % of control (dose: 100.0 mg/kg/injection, schedule: Q01DX001 (sc), vehicle: steriod suspending solution) and 101 % of control (dose: 200.0 mg/kg/injection, schedule: Q01DX001 (sc), vehicle: steriod suspending solution).

Take `Cc1cc([NH-])c([NH-])cc1C.[Cl][Pt+2][Cl]`: the T/C is 150 % of control (dose: 18.0 mg/kg/injection, schedule: Q01DX009 (ip), vehicle: water); 119 % of control (dose: 25.0 mg/kg/injection, schedule: Q01DX009 (ip), vehicle: other); 104 % of control (dose: 50.0 mg/kg/injection, schedule: Q04DX003 (ip), vehicle: other); 112 % of control and 119 % of control (dose: 50.0 mg/kg/injection, schedule: Q04DX003 (ip), vehicle: saline); 119 % of control (dose: 100.0 mg/kg/injection, schedule: Q04DX003 (ip), vehicle: other); 107 % of control and 113 % of control under setting [5]. Moreover, the T/C under setting [6] is 93 % of control.
